In ChEMBL document CHEMBL4308875, “Synthesis, antituberculosis studies and biological evaluation of new quinoline derivatives carrying 1,2,4-oxadiazole moiety” (Bioorg Med Chem Lett, 2019):
In brackets after ≈: the same amount, converted by molar mass.

Tests used:
[1] = test system: Mycobacterium tuberculosis; test: Antitubercular activity against Mycobacterium tuberculosis H37Rv after 15 days by turbidometric method; assay type: functional; conditions: 360 h
[2] = Metabolic stability in human liver microsomes assessed as compound remaining at 1 uM after 15 mins in presence of G-6-P, G-6-PDH, MgCl2 and NADP+ by LC-MS/MS analysis (reference value: 100%)
[3] = Metabolic stability in human liver microsomes assessed as compound remaining at 1 uM after 30 mins in presence of G-6-P, G-6-PDH, MgCl2 and NADP+ by LC-MS/MS analysis (reference value: 100%)
Escherichia coli = test: Antibacterial activity against Escherichia coli ATCC 25922 after 15 days by turbidometric method; assay type: functional; conditions: ATCC 25922, 360 h
Acinetobacter baumannii = test: Antibacterial activity against Acinetobacter baumannii ATCC 19606 after 15 days by turbidometric method; assay type: functional; conditions: ATCC 19606 = CIP 70.34 = JCM 6841
Staphylococcus aureus = test: Antibacterial activity against Staphylococcus aureus ATCC 33591 after 15 days by turbidometric method; assay type: functional; conditions: ATCC 33591, 360 h
Enterococcus faecium = test: Antibacterial activity against Enterococcus faecium ATCC 51559 after 15 days by turbidometric method; assay type: functional; conditions: ATCC 51559, 360 h
Pseudomonas aeruginosa = test: Antibacterial activity against Pseudomonas aeruginosa ATCC 15442 after 15 days by turbidometric method; assay type: functional; conditions: ATCC 15442, 360 h
Klebsiella pneumoniae = test: Antibacterial activity against Klebsiella pneumoniae ATCC 700603 after 15 days by turbidometric method; assay type: functional; conditions: Klebsiella pneumoniae, 700603, 360 h
HepG2 = test: Cytotoxicity against human HepG2 cells after 24 hrs by MTT assay; assay type: cell-based; conditions: HepG2, 24 h
[4] = Metabolic stability in human liver microsomes assessed as compound remaining at 1 uM after 60 mins in presence of G-6-P, G-6-PDH, MgCl2 and NADP+ by LC-MS/MS analysis (reference value: 100%)
[5] = Metabolic stability in human liver microsomes assessed as compound remaining at 1 uM after 120 mins in presence of G-6-P, G-6-PDH, MgCl2 and NADP+ by LC-MS/MS analysis (reference value: 100%)
[6] = Metabolic stability in human liver microsomes assessed as compound remaining at 1 uM after 120 mins by LC-MS/MS analysis (reference value: 100%)
[7] = Cmax in BALB/c mouse at 30 mg/kg, po; assay type: ADME, organism-based; design: dose 30 mg/kg, route oral; conditions: in vivo
[8] = Tmax in BALB/c mouse at 30 mg/kg, po; assay type: ADME, organism-based; conditions: in vivo
[9] = AUClast in BALB/c mouse at 30 mg/kg, po; assay type: ADME, organism-based; design: dose 30 mg/kg, route oral, time 0 - last; conditions: in vivo
[10] = AUC (infinity) in BALB/c mouse at 30 mg/kg, po; assay type: ADME, organism-based; design: dose 30 mg/kg, time infinity, route oral; conditions: in vivo
[11] = Extrapolated AUC in BALB/c mouse at 30 mg/kg, po; assay type: ADME, organism-based; conditions: in vivo
[12] = Half life in BALB/c mouse at 30 mg/kg, po; assay type: ADME, organism-based; conditions: in vivo
[13] = MRTlast in BALB/c mouse at 30 mg/kg, po; assay type: ADME, organism-based; conditions: in vivo
[14] = test system: Mycobacterium tuberculosis; test: Bacteriostatic activity against Mycobacterium tuberculosis H37Rv assessed as colony forming units at 0.002 to 64 ug/ml measured day 3 post dose by time kill assay (reference value: 0 log10CFU/ml); assay type: functional
[15] = test system: Mycobacterium tuberculosis; test: Bacteriostatic activity against Mycobacterium tuberculosis H37Rv assessed as colony forming units at 0.002 to 64 ug/ml measured day 7 post dose by time kill assay (reference value: 0 log10CFU/ml); assay type: functional
[16] = test system: Mycobacterium tuberculosis; test: Bacteriostatic activity against Mycobacterium tuberculosis H37Rv assessed as colony forming units at 0.002 to 64 ug/ml measured day 14 post dose by time kill assay (reference value: 0 log10CFU/ml); assay type: functional
[17] = test system: Mycobacterium tuberculosis; test: Bacteriostatic activity against Mycobacterium tuberculosis H37Rv assessed as colony forming units at 0.002 to 64 ug/ml measured day 21 post dose by time kill assay (reference value: 0 log10CFU/ml); assay type: functional

Row | Compound | MIC [1] [µg/mL] | remaining at 0.25 h, 1 µM [2] [%] | remaining at 0.5 h, 1 µM [3] [%] | MIC (Escherichia coli) [µg/mL] | MIC (Acinetobacter baumannii) [µg/mL] | MIC (Staphylococcus aureus) [µg/mL] | MIC (Enterococcus faecium) [µg/mL] | MIC (Pseudomonas aeruginosa) [µg/mL] | MIC (Klebsiella pneumoniae) [µg/mL] | IC50 (HepG2) [µM] | remaining at 1 h, 1 µM [4] [%] | remaining at 2 h, 1 µM [5] [%] | remaining at 2 h, 1 µM [6] [%] | Cmax [7] [ng/mL] | Tmax [8] [h] | AUC(0-t) [9] [ng·h/mL] | AUC(0-inf) [10] [ng·h/mL] | %AUCextra [11] [%] | half-life [12] [h] | MRT last [13] [h] | further results
1 | N#Cc1cccc(-c2nc(CN3CCN(c4ccnc5cc(Cl)ccc45)CC3)no2)c1 | 64 (≈ 149 µM) | – | – | – | – | – | – | – | – | – | – | – | – | – | – | – | – | – | – | – | –
2 | CC(C)c1ccc(-c2nc(CN3CCN(c4ccnc5cc(-c6cc(F)cc(F)c6)ccc45)CC3)no2)cc1 | 32 (≈ 60.9 µM) | – | – | – | – | – | – | – | – | – | – | – | – | – | – | – | – | – | – | – | –
3 | CC(C)c1ccc(-c2nc(CN3CCN(c4ccnc5cc(Cl)ccc45)CC3)no2)cc1 | 0.5 (≈ 1.12 µM) | 82 | 67.2 | > 32 | > 32 | > 32 | > 32 | > 32 | > 32 | > 100 | 55.3 | 39.7 | 89.2 | 2500 | 1 | 5270 | 5330 | 1.17 | 1.63 | 1.5 | Emax [14]: 0.2 log10CFU/ml; Emax [15]: 1.1 log10CFU/ml; Emax [16]: 0.9 log10CFU/ml; Emax [17]: 0.9 log10CFU/ml
4 | Cc1cccc(-c2nc(CN3CCN(c4ccnc5cc(-c6ccncc6)ccc45)CC3)no2)c1C | 2 (≈ 4.2 µM) | – | – | – | – | – | – | – | – | – | – | – | – | – | – | – | – | – | – | – | –
5 | N#Cc1cccc(-c2nc(CN3CCN(c4ccnc5cc(-c6cc(F)cc(F)c6)ccc45)CC3)no2)c1 | > 256 | – | – | – | – | – | – | – | – | – | – | – | – | – | – | – | – | – | – | – | –
6 | CC(C)c1ccc(-c2nc(CN3CCN(c4ccnc5cc(-c6ccncc6)ccc45)CC3)no2)cc1 | 2 (≈ 4.08 µM) | – | – | – | – | – | – | – | – | – | – | – | – | – | – | – | – | – | – | – | –
7 | Cc1cccc(-c2nc(CN3CCN(c4ccnc5cc(-c6cccnc6)ccc45)CC3)no2)c1C | 0.25 (≈ 0.525 µM) | 65.1 | 47.3 | > 32 | > 32 | > 32 | > 32 | > 32 | > 32 | > 100 | 31.7 | 18.1 | 78 | 6410 | 0.5 | 8290 | 8310 | 0.22 | 0.94 | 1.34 | –
8 | COc1cc(OC)cc(-c2nc(CN3CCN(c4ccnc5cc(Cl)ccc45)CC3)no2)c1 | 32 (≈ 68.7 µM) | – | – | – | – | – | – | – | – | – | – | – | – | – | – | – | – | – | – | – | –
9 | c1cncc(-c2ccc3c(N4CCN(Cc5noc(C6CCCC6)n5)CC4)ccnc3c2)c1 | 0.25 (≈ 0.567 µM) | 60.8 | 54.8 | 256 (≈ 581 µM) | 512 (≈ 1160 µM) | 512 (≈ 1160 µM) | 64 (≈ 145 µM) | 512 (≈ 1160 µM) | 256 (≈ 581 µM) | > 50 | 38 | 21.9 | 97.8 | 9600 | 0.5 | 20000 | 20200 | 0.71 | 0.75 | 1.31 | –
10 | Clc1ccc2c(N3CCN(Cc4noc(C5CCCC5)n4)CC3)ccnc2c1 | 32 (≈ 80.4 µM) | – | – | – | – | – | – | – | – | – | – | – | – | – | – | – | – | – | – | – | –
11 | COc1cc(OC)cc(-c2nc(CN3CCN(c4ccnc5cc(-c6ccncc6)ccc45)CC3)no2)c1 | > 128 | – | – | – | – | – | – | – | – | – | – | – | – | – | – | – | – | – | – | – | –
12 | CC(C)c1ccc(-c2nc(CN3CCN(c4ccnc5cc(-c6cccnc6)ccc45)CC3)no2)cc1 | 0.25 (≈ 0.51 µM) | 74.1 | 56.8 | > 32 | > 32 | > 32 | > 32 | > 32 | > 32 | > 100 | 40.1 | 23 | 76.5 | 7440 | 0.5 | 11900 | 11900 | 0.6 | 1.05 | 1.38 | –
13 | Fc1cc(F)cc(-c2nc(CN3CCN(c4ccnc5cc(Cl)ccc45)CC3)no2)c1 | > 128 | – | – | – | – | – | – | – | – | – | – | – | – | – | – | – | – | – | – | – | –
